{"source": "patent US20240382466A1", "about": "“PHARMACEUTICAL COMPOSITION FOR PREVENTING OR TREATING ALZHEIMER’S DISEASE” (priority 2021, published 2024)", "key": {"[1]": {"system": "mice in a model of Alzheimer's disease", "experiment": "Eight-arm maze behavioral experiment in D-galactose/AlCl3 mouse model of Alzheimer's disease", "type": "in vivo, Kunming mice", "conditions": "8 weeks, x ± s, n = 10", "from_the_text": "A food providing device is arranged at an end of each arm of an eight-arm maze. The spatial memory ability of an experimental animal may be reflected according to the strategy of analyzing feeding of an animal, namely the parameters of the times, time, correct times, wrong times, routes and the like of entering each arm. In contrast, the eight-arm maze is simple, convenient and feasible to operate, can distinguish short-term working memory from long-term reference memory, and is widely used for evaluating a learning and memory cognitive experiment. The main analysis indexes of the eight-arm maze are name, grouping, working memory error latency, reference memory error latency, total correct times, total arm entering times, working memory error times, reference memory error times, correct latency, correct rate, working memory error rate, reference memory error rate, correct times before first error, test time, a track graph and the like. […] 100 SPF-grade Kunming mice, each half male and female, weighed 20-22 g, were provided by the Jinan Pengyue Experimental Animal Breeding Co., Ltd with the animal certificate number: SCXK(Lu)20190003. The mice were bred to freely drink and eat in an SPF-grade animal breeding room with strictly controlled environmental conditions: the temperature of 20-26° C., the humidity of 40-70%, the light and dark cycle of 12 h:12 h, and a growing and breeding feed. All mice were first trained in an eight-arm maze which was a common model for evaluating the learning and memory ability of an animal. The animals were adaptively fed for 1 week, weighed, and fasted for 24 hours. Then after each day of training, the mice were restrictively given a normal diet to maintain the body weight of the mice between 80% and 85% of that of mice fed normally. On the second day, food particles (4-5 particles each arm with the diameter of about 3-4 mm) were sprayed in each arm and a center area of the maze. Then 4 animals were placed in the center of the maze simultaneously (doors to each arm were opened). The animals were freely fed and explored for 10 min. On the third day, the training of the second day was repeated. This process allowed the animals to become familiar with the maze environment without very strong stress. On the fourth day, the animals were trained individually: one food particle was placed in each arm near an outer food box and the animals ate freely. The animals were removed after the food particles were consumed or 10 min later. On the fifth day, the food was placed in the food box and the previous day of training was repeated 2 times a day. After the sixth day, 4 arms were randomly selected and one food particle was placed in each arm; each arm door was closed and the animals were placed in the center of the maze; and after 30s, the arm door was opened, the animals moved freely in the maze and took the food particle until the animals ate the food particles of all 4 arms. If the food particles were not eaten up after 10 min, the experiment was terminated. The animals were trained twice a day with the interval of 1 h or more. […] The mice meeting the learning standard were screened, 10 of them were randomly selected as a normal group, 10 as a model group, and the others as experimental groups. Except that the mice in the normal group were intraperitoneally injected with the same amount of normal saline and intragastrically administrated with the same amount of double distilled water, the mice of the other groups were all intraperitoneally injected with D-galactose (500 mg/kg/D) (prepared with normal saline) and intragastrically administrated AlCl3 (20 mg/kg/D) (prepared with double distilled water). The mice in the experimental groups were intragastrically administrated once a day according to the grouping and administration dose and the mice in the normal group and the model group were intragastrically administrated with the same amount of purified water for 8 weeks successively. […]"}, "[2]": {"system": "mice in a model of Alzheimer's disease", "experiment": "Contents of tryptophan, L-kynurenine and 5-hydroxytryptamine in serum by high performance liquid chromatography", "type": "in vivo, Kunming mice", "conditions": "8 weeks, x ± s, n = 10", "experimental": "100 SPF-grade Kunming mice, each half male and female, weighed 20-22 g, were provided by the Jinan Pengyue Experimental Animal Breeding Co., Ltd with the animal certificate number: SCXK(Lu)20190003. The mice were bred to freely drink and eat in an SPF-grade animal breeding room with strictly controlled environmental conditions: the temperature of 20-26° C., the humidity of 40-70%, the light and dark cycle of 12 h:12 h, and a growing and breeding feed. The mice meeting the learning standard were screened, 10 of them were randomly selected as a normal group, 10 as a model group, and the others as experimental groups. Except that the mice in the normal group were intraperitoneally injected with the same amount of normal saline and intragastrically administrated with the same amount of double distilled water, the mice of the other groups were all intraperitoneally injected with D-galactose (500 mg/kg/D) (prepared with normal saline) and intragastrically administrated AlCl3 (20 mg/kg/D) (prepared with double distilled water). The mice in the experimental groups were intragastrically administrated once a day according to the grouping and administration dose and the mice in the normal group and the model group were intragastrically administrated with the same amount of purified water for 8 weeks successively. The mice in the experimental groups were divided into 8 groups of low- and high-dose anhydroicaritin groups, low- and high-dose compound I groups, and composition A, B, C, and D groups with 10 mice in each group. […] After the last administration, […] of blood was taken from each eyeball of each group of the mice subjected to the eight-arm maze test and stood overnight at 4° C. in a test tube, and a supernatant was taken the following day for later use. The contents of tryptophan, L-kynurenine, and 5-hydroxytryptamine in blood serum were detected by a high performance liquid chromatography."}, "GSK-3": {"system": "GSK-3", "conditions": "cited from earlier work"}, "microglia": {"system": "microglia", "conditions": "Alzheimer's disease inflammation model; cited from earlier work"}, "[3]": {"conditions": "high-dose anhydroicaritin group, 21.2 mg/(kg·d) intragastric once a day"}, "[4]": {"conditions": "low-dose anhydroicaritin group, 3.2 mg/(kg·d) intragastric once a day"}, "[5]": {"conditions": "high-dose anhydroicaritin group, 21.2 mg/(kg·d) intragastric"}, "[6]": {"conditions": "low-dose anhydroicaritin group, 3.2 mg/(kg·d) intragastric"}, "[7]": {"conditions": "high-dose compound I group, 32 mg/(kg·d) intragastric once a day"}, "[8]": {"conditions": "low-dose compound I group, 0.6 mg/(kg·d) intragastric once a day"}, "[9]": {"conditions": "high-dose compound I group, 32 mg/(kg·d) intragastric"}, "[10]": {"conditions": "low-dose compound I group, 0.6 mg/(kg·d) intragastric"}}, "data": [{"smiles": "COc1ccc(-c2oc3c(CC=C(C)C)c(O)cc(O)c3c(=O)c2O)cc1", "note": "[anhydroicaritin]", "values": [{"measurement": "Average exploration time (s)", "setting": "[1]; [3]", "result": "189.81 ± 1.19^+ s"}, {"measurement": "Reference memory error frequency", "setting": "[1]; [3]", "result": "0.20 ± 0.04^+"}, {"measurement": "Working memory error frequency", "setting": "[1]; [3]", "result": "0.44 ± 0.06^+"}, {"measurement": "Average exploration time (s)", "setting": "[1]; [4]", "result": "190.17 ± 1.18^+ s"}, {"measurement": "Reference memory error frequency", "setting": "[1]; [4]", "result": "0.21 ± 0.03^+"}, {"measurement": "Working memory error frequency", "setting": "[1]; [4]", "result": "0.45 ± 0.02^+"}, {"measurement": "5-hydroxytryptamine (μg/ml)", "setting": "[2]; [5]", "result": "1.30 ± 0.07^+ μg/ml"}, {"measurement": "L-kynurenine (μg/ml)", "setting": "[2]; [5]", "result": "0.33 ± 0.02^+ μg/ml"}, {"measurement": "Tryptophan (μg/ml)", "setting": "[2]; [5]", "result": "17.90 ± 0.30^+ μg/ml"}, {"measurement": "5-hydroxytryptamine (μg/ml)", "setting": "[2]; [6]", "result": "1.29 ± 0.05^+ μg/ml"}, {"measurement": "L-kynurenine (μg/ml)", "setting": "[2]; [6]", "result": "0.33 ± 0.01^+ μg/ml"}, {"measurement": "Tryptophan (μg/ml)", "setting": "[2]; [6]", "result": "17.79 ± 0.65^+ μg/ml"}]}, {"smiles": "COc1ccc(-c2oc3c(CC=C(C)C)c(O)cc(O)c3c(=O)c2O)cc1", "note": "[icaritin]", "values": [{"measurement": "GSK-3 activity", "setting": "GSK-3", "result": "inhibiting GSK-3 activity"}, {"measurement": "activation of microglia induced by LPS", "setting": "microglia", "result": "inhibit excessive activation of microglia induced by LPS"}, {"measurement": "learning and memory ability of mice", "setting": "microglia", "result": "improve the learning and memory ability of mice"}]}, {"smiles": "N=C(N)NCCNc1nonc1/C(=N/O)Nc1ccc(F)c(Br)c1", "note": "[compound I]", "values": [{"measurement": "Average exploration time (s)", "setting": "[1]; [7]", "result": "189.95 ± 1.04^+ s"}, {"measurement": "Reference memory error frequency", "setting": "[1]; [7]", "result": "0.21 ± 0.04^+"}, {"measurement": "Working memory error frequency", "setting": "[1]; [7]", "result": "0.44 ± 0.05^+"}, {"measurement": "Average exploration time (s)", "setting": "[1]; [8]", "result": "190.20 ± 1.09^+ s"}, {"measurement": "Reference memory error frequency", "setting": "[1]; [8]", "result": "0.23 ± 0.05^+"}, {"measurement": "Working memory error frequency", "setting": "[1]; [8]", "result": "0.52 ± 0.03^++"}, {"measurement": "5-hydroxytryptamine (μg/ml)", "setting": "[2]; [9]", "result": "1.28 ± 0.05^+ μg/ml"}, {"measurement": "L-kynurenine (μg/ml)", "setting": "[2]; [9]", "result": "0.33 ± 0.01^+ μg/ml"}, {"measurement": "Tryptophan (μg/ml)", "setting": "[2]; [9]", "result": "18.08 ± 0.02^+ μg/ml"}, {"measurement": "5-hydroxytryptamine (μg/ml)", "setting": "[2]; [10]", "result": "1.29 ± 0.05^+ μg/ml"}, {"measurement": "L-kynurenine (μg/ml)", "setting": "[2]; [10]", "result": "0.35 ± 0.03^+ μg/ml"}, {"measurement": "Tryptophan (μg/ml)", "setting": "[2]; [10]", "result": "17.92 ± 0.95^+ μg/ml"}]}]}
